From patent US11357811B2, “Methods to isolate anti-microbials from fruit or seed extracts” (priority 2012, dated 2022) come the findings set out here.

Series [1] relates to vaccinia virus. Format: cell-based.
For series [2], the system named is poliovirus 1. Format: cell-based.
For series [3], the system named is influenza A/H1N1. Format: cell-based.
Series [4] relates to human parainfluenza 3 virus (HPIV3). As to the kind of experiment: antiviral testing against human parainfluenza 3 virus. Format: cell-based. As to conditions: commercially available preparation; 100 ng/mL-100 μg/mL.
Series [5] has as its system herpes simplex virus-1. Format: cell-based.
For series [6] the following is noted: at 1-100 μg/mL.

Regarding `COc1cc(C=CC(=O)O)cc(OC)c1O` (stereo in doubt) [sinapinic acid], in series [1], the “anti-viral activity against vaccinia virus” value is listed as “None of the compounds showed anti-viral activity”. For the same molecule, the “anti-viral activity against poliovirus Sabin-1” value in series [2] is “None of the compounds showed anti-viral activity”. In addition, in series [3], the “anti-viral activity against influenza A/California/July/2009 (H1N1)” value was “None of the compounds showed anti-viral activity”. For the same molecule, the “anti-viral activity against parainfluenza virus-3” value in series [4] is listed as “None of the compounds showed anti-viral activity”. The “anti-viral activity against herpes simplex virus-1” value in series [5] was “None of the compounds showed anti-viral activity”.
Consider `CCOC(=O)C1=C[C@@H](OC(CC)CC)[C@H](NC(C)=O)[C@@H](N)C1` [Tamiflu], for which the “influenza A/H1N1 inhibition by hemagglutination read-out” value in series [3] is “effective viral inhibition”.
As for `O=c1c(O[C@@H]2O[C@H](CO)[C@H](O)[C@H](O)[C@H]2O)c(-c2cc(O)c(O)c(O)c2)oc2cc(O)cc(O)c12` [myricetin-beta-3-galactoside], in series [1], the “anti-viral activity against vaccinia virus” value is “None of the compounds showed anti-viral activity”. In series [2], the “anti-viral activity against poliovirus Sabin-1” value is recorded as “None of the compounds showed anti-viral activity”. For the same molecule, the “anti-viral activity against influenza A/California/July/2009 (H1N1)” value in series [3] was “None of the compounds showed anti-viral activity”. Moreover, the “anti-viral activity against parainfluenza virus-3” value in series [4] was “None of the compounds showed anti-viral activity”. Also, in series [5], the “anti-viral activity against herpes simplex virus-1” value was “None of the compounds showed anti-viral activity”.
As for `Oc1cc(O)c2c(c1)O[C@@]1(c3ccc(O)c(O)c3)Oc3cc(O)c4c(c3[C@@H]2[C@H]1O)O[C@H](c1ccc(O)c(O)c1)[C@H](O)C4` [procyanidin A2], the “anti-viral activity against vaccinia virus” value in series [1] is recorded as “None of the compounds showed anti-viral activity”. Also, in series [2], the “anti-viral activity against poliovirus Sabin-1” value is “None of the compounds showed anti-viral activity”. Also, the “anti-viral activity against influenza A/California/July/2009 (H1N1)” value in series [3] is “None of the compounds showed anti-viral activity”. In addition, the “anti-viral activity against parainfluenza virus-3” value in series [4] is recorded as “None of the compounds showed anti-viral activity”. For the same molecule, in series [5], the “anti-viral activity against herpes simplex virus-1” value was “None of the compounds showed anti-viral activity”.
For the molecule `O=c1c(O[C@@H]2O[C@H](CO)[C@H](O)[C@H](O)[C@H]2O)c(-c2ccc(O)c(O)c2)oc2cc(O)cc(O)c12` [quercetin-β-3-galactoside], the “anti-viral activity against vaccinia virus (in words)” value in series [1] is “core) was found to be inactive”.
Regarding `CC(C)[C@]12O[C@H]1[C@@H]1O[C@]13[C@]1(O[C@H]1C[C@H]1C4=C(CC[C@@]13C)C(=O)OC4)[C@@H]2O` [triptolide], the “anti-viral activity against vaccinia virus” value in series [1] is recorded as “None of the compounds showed anti-viral activity”. For the same molecule, the “anti-viral activity against poliovirus Sabin-1” value in series [2] is on record as “None of the compounds showed anti-viral activity”. The “anti-viral activity against influenza A/California/July/2009 (H1N1)” value in series [3] is reported as “None of the compounds showed anti-viral activity”. In addition, the “anti-viral activity against parainfluenza virus-3” value in series [4] is reported as “None of the compounds showed anti-viral activity”. Further, in series [5], the “anti-viral activity against herpes simplex virus-1” value is recorded as “None of the compounds showed anti-viral activity”. For the same molecule, the toxicity entry in series [6] is “toxic”.
